Assay results published in ChEMBL document CHEMBL4196117, “PK/PD Disconnect Observed with a Reversible Endothelial Lipase Inhibitor” (ACS Med Chem Lett, 2018).

Columns and labels:
Mus musculus [1] = experiment: fCmax in C57BL/6J mouse at 50 mg/kg, po administered once daily for 5 days measured 6 hrs post last dose; type: ADME, organism-based; details: in vivo
[2] = Cmin in C57BL/6J mouse at 50 mg/kg, po administered once daily for 5 days measured 24 hrs post last dose; type: ADME, organism-based; details: in vivo, read-out: Cmin
Mus musculus [3] = experiment: fCmin in C57BL/6J mouse at 50 mg/kg, po administered once daily for 5 days measured 24 hrs post last dose; type: ADME, organism-based; details: in vivo
Hamster = experiment: fCmax in hamster at 50 mg/kg, po qd for 7 days measured 6 hrs post dose on day 5; type: ADME, organism-based; details: cricetinae, in vivo
[4] = Tmax in CD1 mouse at 1 mg/kg, iv administered as bolus dose; type: ADME, organism-based; details: in vivo
Endothelial lipase [5] = target: T1, Endothelial lipase (Homo sapiens, UniProt Q9Y5X9); experiment: Inhibition of endothelial lipase in human HT1080 cells using PED-A1 containing DMPG vesicles as substrate pretreated for 20 mins followed by substrate addition and measured every 20 secs for 10 mins by fluorescence assay; type: cell-based
T1 sequence (Q9Y5X9 whole entry): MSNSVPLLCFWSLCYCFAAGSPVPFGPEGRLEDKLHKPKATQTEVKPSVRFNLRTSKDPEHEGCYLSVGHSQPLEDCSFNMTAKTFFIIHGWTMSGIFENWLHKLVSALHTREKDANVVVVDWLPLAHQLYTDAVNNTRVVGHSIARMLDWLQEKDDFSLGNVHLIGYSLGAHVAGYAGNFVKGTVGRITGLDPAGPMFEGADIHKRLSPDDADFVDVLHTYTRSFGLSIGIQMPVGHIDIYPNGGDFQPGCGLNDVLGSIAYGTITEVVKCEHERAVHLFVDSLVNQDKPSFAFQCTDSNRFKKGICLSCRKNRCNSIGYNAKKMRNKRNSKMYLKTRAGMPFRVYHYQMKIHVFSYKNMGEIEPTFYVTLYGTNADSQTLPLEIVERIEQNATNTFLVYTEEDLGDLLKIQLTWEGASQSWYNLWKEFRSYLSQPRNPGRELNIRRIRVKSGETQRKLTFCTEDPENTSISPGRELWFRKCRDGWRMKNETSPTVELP

[6] = Oral bioavailability in CD1 mouse at 1 mg/kg administered as bolus dose; type: ADME, organism-based; details: in vivo
[7] = Cmax in CD1 mouse at 1 mg/kg, po administered as bolus dose; type: ADME, organism-based; design: dose 1 mg/kg, route oral; details: in vivo
[8] = Total AUC in CD1 mouse at 1 mg/kg, iv administered as bolus dose; type: ADME, organism-based; design: dose 1 mg/kg, time AUCmax, route intravenous; details: in vivo
[9] = Ratio of fCmax in hamster to IC50 for recombinant mouse endothelial lipase expressed in HEK293F cells using HDL as substrate; type: ADME, cell-based
[10] = Half life in CD1 mouse at 1 mg/kg, iv administered as bolus dose; type: ADME, organism-based; details: in vivo
Mus musculus [11] = experiment: Free drug level in CD1 mouse at 1 mg/kg, po administered as bolus dose measured after 24 hrs; type: ADME, organism-based; details: in vivo
[12] = Ratio of fCmax in C57BL/6J mouse to IC50 for recombinant mouse endothelial lipase expressed in HEK293F cells using HDL as substrate; type: ADME, cell-based
Mus musculus [13] = experiment: Ratio of total AUC in CD1 mouse at 10 mg/kg, po administered as bolus dose to total AUC in CD1 mouse at 1 mg/kg, po administered as bolus dose; type: ADME, organism-based; details: in vivo
[14] = Protein binding in CD1 mouse plasma at 1 mg/kg, po administered as bolus dose; type: ADME, organism-based; details: read-out: PPB (converted)
[15] = Protein binding in CD1 mouse plasma assessed as unbound fraction at 1 mg/kg, po administered as bolus dose; type: ADME, organism-based
[16] = Tmax in CD1 mouse at 1 mg/kg, po administered as bolus dose; type: ADME, organism-based; details: in vivo
[17] = Half life in CD1 mouse at 1 mg/kg, po administered as bolus dose; type: ADME, organism-based; details: in vivo
[18] = Drug level in CD1 mouse at 1 mg/kg, po administered as bolus dose measured after 24 hrs; type: ADME, organism-based; details: in vivo, read-out: Drug uptake
Mus musculus [19] = experiment: Ratio of total AUC in CD1 mouse at 50 mg/kg, po administered as bolus dose to total AUC in CD1 mouse at 1 mg/kg, po administered as bolus dose; type: ADME, organism-based; details: in vivo
[20] = Cmax in CD1 mouse at 1 mg/kg, iv administered as bolus dose; type: ADME, organism-based; design: dose 1 mg/kg, route intravenous; details: in vivo
[21] = Total AUC in CD1 mouse at 1 mg/kg, po administered as bolus dose; type: ADME, organism-based; design: dose 1 mg/kg, route oral, time AUCmax; details: in vivo
Endothelial lipase [22] = target: T1, Endothelial lipase; experiment: Inhibition of endothelial lipase in human HT1080 cells using HDL as substrate pretreated for 10 mins followed by substrate addition and measured after 30 mins by LC/MS/MS analysis; type: cell-based
[23] = Ratio of fCmin in C57BL/6J mouse to IC50 for recombinant mouse endothelial lipase expressed in HEK293F cells using HDL as substrate; type: ADME, cell-based
[24] = Protein binding in hamster plasma at 50 mg/kg, po qd for 7 days measured 6 hrs post dose on day 5; type: ADME, organism-based; details: cricetinae, read-out: PPB (converted)
[25] = Cmax in C57BL/6J mouse at 50 mg/kg, po administered once daily for 5 days measured 6 hrs post last dose; type: ADME, organism-based; design: dose 50 mg/kg, route oral; details: in vivo

`CCN1CC(C(=O)NC(C)CCc2ccc(Cl)c(Cl)c2)=C(O)C1=O` (stereo in doubt; 7c) showed a fCmax (Mus musculus [1]) of 5.5 µM, a concentration at 24 h [2] of 57 µM and a fCmin (Mus musculus [3]) of 1.3 µM. The fCmax (Hamster) was 5.1 µM, the Tmax [4] was 3 min and the IC50 (Endothelial lipase [5]) was 148 nM. It also gave a bioavailability [6] of 96%, a Cmax [7] of 15 µM and an AUC [8] of 304 µM·h. For the same compound, the Ratio [9] was 51, the half-life [10] was 780 min and the “Drug uptake(free)” value (Mus musculus [11]) was 99 nM. The Ratio [12] was 55, the “Ratio AUC” value (Mus musculus [13]) was 7.5 and the fraction unbound [14] was 0.023. The fraction unbound [15] was 0.023, the Tmax [16] was 30 min and the half-life [17] was 780 min. The concentration at 24 h [18] was 4.31 µM, the “Ratio AUC” value (Mus musculus [19]) was 18 and the Cmax [20] was 39 µM. The AUC [21] was 292 µM·h, the IC50 (Endothelial lipase [22]) was 218 nM and the Ratio [23] was 13. It also gave a fraction unbound at 6 h [24] of 0.016 and a Cmax [25] of 238 µM.
